Test results: ChEMBL document CHEMBL1154198, “Chemical genetics of Plasmodium falciparum” (Nature, 2010)

What was measured:
Plasmodium falciparum [1] = assay: ST_JUDE: Plasmodium falciparum 3D7 EC50 (uM) as measured by SYBR green dye; format: functional, organism-based
Plasmodium falciparum [2] = assay: ST_JUDE: Plasmodium falciparum K1 EC50 (uM) as measured by SYBR green dye; format: functional, organism-based

Compound	EC50 (Plasmodium falciparum [1])	EC50 (Plasmodium falciparum [2])
Cc1cc(Nc2ccc(C)c(F)c2)n2ncnc2n1	> 15 µM	> 15 µM
CCC(C)c1ccc(O)c(NC(=O)c2cncc(Br)c2)c1 (stereo unspecified)	2.15 µM	1.59 µM
O=C(CSc1nc(-c2ccccc2Cl)ns1)Nc1cccc(Cl)c1	1.39 µM	1.7 µM
COc1ccc(C2C(C(=O)Nc3cc(C)ccc3OC)c3ccccc3C(=O)N2C)cc1 (stereo unspecified)	2.1 µM	3.73 µM
C=CCOc1ccc(C(=O)Nc2nonc2-c2ccc(OC)c(OC)c2)cc1	0.591 µM	0.689 µM
COc1cc2c(cc1OC)C(C(=O)Nc1ccc(C(F)(F)F)cc1)C(c1cccs1)N(C)C2=O (stereo unspecified)	2.34 µM	3.05 µM
CCCCC(=O)NC(c1cccs1)c1cc(Cl)c2cccnc2c1O (stereo unspecified)	> 15 µM	> 15 µM
CCN1/C(=C/c2cccc[n+]2C)Sc2ccccc21	4.47 µM	> 15 µM
COc1cccc(C(=O)NC(c2ccc(Cl)cc2)c2cc(Cl)c3cccnc3c2O)c1 (stereo unspecified)	2.01 µM	1.66 µM
CC(C)CCNCC(O)Cn1c2ccc(Br)cc2c2cc(Br)ccc21 (stereo unspecified)	0.492 µM	0.149 µM
Cc1cc(/C=N/n2cnnc2)c(C)n1-c1ccc(Br)cc1	> 15 µM	> 15 µM
CCO/C(O)=C1\C(C)=NC2=C(C(=O)CC(c3ccc(OC)c(OC)c3)C2)C1c1ccc(SC)cc1 (stereo unspecified)	3.2 µM	3.18 µM
CC(=O)CCc1ccc(OCCN2CCOCC2)cc1	> 15 µM	> 15 µM
CCc1ccc(S(=O)(=O)Nc2ccc(Nc3nc(C)cc(Nc4ccc(OC)cc4)n3)cc2)cc1	0.577 µM	9.28 µM
CCCCN(CC)CCNC(=O)c1cc2cc3ccc(C)cc3nc2o1	> 15 µM	4.09 µM
Cc1cc(O)nc2nnc(SCC(=O)Nc3cccc(Cl)c3)n12	> 15 µM	7.29 µM
COc1ccc(S(=O)(=O)Nc2cc3sc(=O)oc3c3ccccc23)cc1	> 15 µM	> 15 µM
CCOC(=O)C(NC(C)=O)(Nc1ccc(S(=O)(=O)Nc2cc(C)on2)cc1)C(F)(F)F (stereo unspecified)	2.04 µM	4.56 µM
COC(CNC(=O)c1ccc(-n2c(C)cc3c2CCCC3)cc1)OC	> 15 µM	> 15 µM
O=C(Nc1ccc(Cl)cc1)Nc1ccc(F)c(Cl)c1	3.72 µM	3.57 µM
C[N+]1(CCCCCCCCCCCO)CCCCC1	> 15 µM	> 15 µM
COc1ccc(-c2cc(=O)oc3c(OC)c(OC)ccc23)cc1	> 15 µM	> 15 µM

Compound	EC50 (Plasmodium falciparum [1])	EC50 (Plasmodium falciparum [2])
Cc1ccc(Nc2cc(C)nc(Nc3ccc(NS(=O)(=O)c4ccc(C)cc4)cc3)n2)cc1	0.621 µM	7.97 µM
Cc1ccc(N2C(=O)CS(=O)(=O)C23C(=O)N(Cc2ccccc2Cl)c2ccccc23)cc1C (stereo unspecified)	1.33 µM	2.43 µM
COc1ccc2c(c1)CN(Cc1ccc(F)cc1)CO2	2.13 µM	0.372 µM
Oc1c(C(c2ccc(Cl)cc2)N2CCOCC2)ccc2cccnc12 (stereo unspecified)	2.19 µM	2.97 µM
COc1ccc(CN2CCNC(=O)C2CC(=O)NCCOC(C)C)c(OC)c1 (stereo unspecified)	> 15 µM	> 15 µM
CCN1CCN(c2cc(C)c3cc(NC(=S)NCCCN4CCN(c5cccc(Cl)c5)CC4)ccc3n2)CC1	2.24 µM	4.24 µM
COCc1cc(CN2CCN(c3ccccc3OC)CC2)c(O)c2ncccc12	4.19 µM	9.06 µM
CCOc1ccc(-c2nonc2NC(=O)c2cccc(C)c2)cc1OCC	0.0619 µM	0.0832 µM
CCN(CC)CCCNC(=O)C1CCN(c2nc3c(C)cc(C)cc3s2)CC1	> 15 µM	> 15 µM
COc1ccccc1/N=C1\C=C(NS(=O)(=O)c2ccc(Cl)cc2)c2ccccc2C1=O	0.268 µM	0.267 µM
Cc1cc(N2CCCC2)nc(Nc2ccc(NS(=O)(=O)c3ccc(Cl)cc3)cc2)n1	2.12 µM	> 15 µM
CCCCC(O)(c1ccc(CC)cc1)C(CN1CCOCC1)c1ccccc1 (stereo unspecified)	3.9 µM	3.44 µM
O=C(c1ccco1)N(Cc1ccccc1)c1cccc([N+](=O)[O-])c1	> 15 µM	> 15 µM
Cc1ccc(/C(O)=C/C=N/c2cc([N+](=O)[O-])ccc2O)cc1	> 15 µM	1.69 µM
C#CCSc1c(CCCC)cnc2c1c(=O)n(C)c(=O)n2C	> 15 µM	> 15 µM
CCS(=O)(=O)Nc1ccc(C2=NN(C(=O)c3ccco3)C(c3ccc(F)cc3)C2)cc1 (stereo unspecified)	> 15 µM	6.12 µM
COc1ccc(NC(=O)C2c3ccccc3C(=O)N(C)C2c2cccs2)cc1Cl (stereo unspecified)	1.07 µM	1.35 µM
Cc1ccc(CN2CCN(C3CCCCC3)C(CCO)C2)cc1C (stereo unspecified)	> 15 µM	> 15 µM
Cc1ccccc1NC(=O)C1c2ccccc2C(=O)N2CCc3ccccc3C12 (stereo unspecified)	4.15 µM	> 15 µM
COc1ccc(Br)cc1C(Nc1ccccn1)c1cc(Cl)c2cccnc2c1O (stereo unspecified)	> 15 µM	2.95 µM
Cc1ccc(CN2CCN(c3nc4c(c(=O)[nH]c(=O)n4C)n3Cc3ccc(C)cc3)CC2)cc1	> 15 µM	> 15 µM
O=C(Nc1nc(-c2ccccn2)cs1)c1ccccc1Br	4.53 µM	2.05 µM

Compound	EC50 (Plasmodium falciparum [1])	EC50 (Plasmodium falciparum [2])
CC(=O)NC(c1ccc(Cl)cc1)c1ccc2cccnc2c1O (stereo unspecified)	1.93 µM	2.15 µM
CCOc1cc(Br)c(C2C(C#N)=C(N)Oc3cc(O)ccc32)cc1OCC (stereo unspecified)	3.8 µM	1.52 µM
CC1CCN(C(=O)c2cc(COc3ccc(F)cc3F)on2)CC1	> 15 µM	> 15 µM
O=[N+]([O-])c1nonc1NCn1nnc2ccccc21	5.07 µM	7.28 µM
CCOC(=O)c1ccc(NC2=C(n3nnc4ccccc43)C(=O)c3ccccc3C2=O)cc1	3.23 µM	0.678 µM
CCN(CC)CCNC(=O)c1ccc2c(c1)sc1nc(-c3ccccc3)cn12	1.03 µM	1.5 µM
N=C(N)N/N=C/c1ccc(OCc2ccc(Cl)cc2Cl)cc1	4.9 µM	4.27 µM
Cn1c(=O)oc2cc(S(=O)(=O)N3CCCC(C(=O)N4CCN(C(c5ccccc5)c5ccccc5)CC4)C3)ccc21 (stereo unspecified)	3.56 µM	1.61 µM
CCC1(C)CC(CCN)(c2ccc(C)cc2)CCO1 (stereo unspecified)	4.8 µM	> 15 µM
Cc1ccc(Nc2nc(N)c3ccccc3n2)cc1C	1.33 µM	3.91 µM
Cc1cccc(NC(=O)Nc2ccc(S(=O)(=O)C(F)(F)F)cc2)c1C	1.32 µM	1.22 µM
CCCCOc1cccc(C(=O)Nc2ccc(CN3CCCCC3)cc2)c1	> 15 µM	> 15 µM
O=C(Nc1nnc(-c2ccc3c(c2)CCCC3)o1)c1ccc(F)cc1	> 15 µM	> 15 µM
Oc1c(Cl)cc(Cl)cc1CN1CCN(c2ccccc2F)CC1	1.85 µM	0.861 µM
CCc1ccc(C2C3=C(O)CC(C)(C)CC3=Nc3cc(OC)c(OC)c(OC)c32)cc1 (stereo unspecified)	> 15 µM	4.85 µM
CCCCc1ccc(NC(=S)NN2CCN(C)CC2)cc1	> 15 µM	> 15 µM
CCCCOCCCN1C(=O)CSC1c1cnccc1-c1ccc(Br)cc1 (stereo unspecified)	2.38 µM	1.76 µM
CCCN1CCN(CCCNC(=O)c2ccc3c(c2)sc2nc(-c4ccc(C)cc4)cn23)CC1	2.02 µM	4.65 µM
CCOC(=O)C1=CN(Cc2ccc(F)cc2)C=C(C(=O)OCC)C1c1cc(OC)c(OC)c(OC)c1	> 15 µM	0.521 µM
Cc1cc(C)c2sc(NNC(=O)c3ccc(S(=O)(=O)N(C)C)cc3)nc2c1	5.94 µM	4.89 µM
COc1ccccc1Nc1nc(NCc2ccccc2)c2ccccc2n1	3.97 µM	11.8 µM
CC(C)CC(C)N1CCC(n2nccc2NC(=O)Nc2ccccc2Cl)CC1 (stereo unspecified)	8.23 µM	> 15 µM

Compound	EC50 (Plasmodium falciparum [1])	EC50 (Plasmodium falciparum [2])
COc1ccccc1C(=O)Nc1nnc(Cc2nc3ccccc3[nH]2)s1	> 15 µM	> 15 µM
O=[N+]([O-])c1ccc(C2N(Cc3ccccc3)CCN2Cc2ccccc2)cc1	> 15 µM	> 15 µM
CCCCNC(=O)CSCc1cnn(-c2ccccc2)c1-n1cccc1	0.506 µM	4.06 µM
COc1ccc(CC(=O)N2CC(=O)Nc3ccc(Cl)cc3C2c2ccc(F)cc2)cc1 (stereo unspecified)	> 15 µM	> 15 µM
CCc1cc(-c2[nH]nc(C)c2Oc2ccccc2)c(O)cc1OC(C)C	3.66 µM	1.46 µM
COc1ccc(-c2cn3c(n2)sc2cc(C(=O)NCCCN4CCN(C)CC4)ccc23)cc1	2.04 µM	6.14 µM
O=C1C(Nc2ccc(I)cc2)=C(N2CCCCC2)C(=O)c2ccccc21	0.153 µM	0.395 µM
CCCCN1COc2ccc3c(-c4ccccc4)cc(=O)oc3c2C1	1.92 µM	0.598 µM
COc1cc(-c2nc(-c3ccccc3)c(-c3ccccc3)[nH]2)cc(OC)c1OC	> 15 µM	> 15 µM
C=CCN1C(=S)NC2c3cc(Br)ccc3OC1(C)C2C (stereo unspecified)	2.58 µM	3.1 µM
CC1(C)N=C(N)N=C(N)N1c1ccc(F)cc1	0.095 µM	2.31 µM
CCCC(=O)C1=C(c2cccc(OC)c2)N(C(=O)CCC)n2cnnc2S1	> 15 µM	> 15 µM
O=C1CC(c2ccc([N+](=O)[O-])cc2)C2=C(CC(c3cccs3)CC2=O)N1 (stereo unspecified)	4.89 µM	2.74 µM
OCCNc1nc(Nc2ccc(Cl)c(Cl)c2)nc2ccccc12	> 15 µM	4.32 µM
CCCN1CC=C2C(C#N)=C(N)C(C#N)(C#N)C(c3ccccc3C(F)(F)F)C2C1 (stereo unspecified)	1.12 µM	0.479 µM
CCOC(=O)c1cccc(NC(=O)CC2C(=O)N(c3ccc(Cl)cc3)C(=O)N2C2CCCC2)c1 (stereo unspecified)	1.42 µM	2.7 µM
Cc1ccccc1Nc1nc(NCc2ccco2)c2ccccc2n1	3.55 µM	> 15 µM
Cc1n(CC(O)COc2cccc(Cl)c2)c2ccccc2[n+]1C (stereo unspecified)	> 15 µM	> 15 µM
CCc1ccccc1NC(=O)c1csc2c1CCC(C)C2 (stereo unspecified)	> 15 µM	> 15 µM
O=C(c1cccc(C(F)(F)F)c1)N1CCN(c2ccc(N3CCCCCC3)nn2)CC1	> 15 µM	> 15 µM
CCOC(=O)c1ccc(NC(=O)Cc2csc(NC(=O)Nc3ccccc3)n2)cc1	> 15 µM	> 15 µM
CCN(CC)CC(O)COc1ccccc1C(=O)CCc1ccccc1 (stereo unspecified)	2.17 µM	1.08 µM
